In the supplement of paper PMC10627819:

How the values were obtained:
S. pneumoniae D39V [1] = assay: fitness (endpoint OD595 vs no drug) (fraction); higher = more growth
Outline: (§1)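 In 384-well plates at 37 °C, cultures began at OD595 0.01 in 30 µl, with 55 µl used for S. pneumoniae. OD595 readings every 30 min for 14 h were corrected by the first reading. Fitness divides the stationary-phase transition optical density by the robust mean of no-drug control wells. The result is capped at 1.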

B. subtilis 168 [2] = assay: as above
Outline: as §1

S. pneumoniae D39V [3] = assay: Bliss interaction score (quartile over a dose matrix) (fitness difference); higher = more antagonism (negative = synergy)
Outline: (§2)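 The Bliss score subtracts expected fitness, the product of the single-drug fitness values, from observed fitness. Fitness is plate-normalised OD595 at entry into stationary phase, relative to the robust no-drug mean and capped at 1, with single-drug fitness inferred from combinations. Summaries are quartiles over technical, biological and donor/recipient replicates.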

B. subtilis 168 [4] = assay: as above
Outline: as §2

S. aureus Newman = assay: as above
Outline: as §2

S. aureus DSM 20231 = assay: as above
Outline: as §2
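Wherever Bliss interaction score (quartile over a dose matrix) is given: first quartile when negative (synergy) and third quartile when positive (antagonism).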

C[C@H]1c2cccc(O)c2C(=O)C2=C(O)[C@]3(O)C(=O)C(C(N)=O)=C(O)[C@@H](N(C)C)[C@@H]3[C@@H](O)[C@@H]21 [Doxycycline] + Cc1ncc([N+](=O)[O-])n1CCO [Metronidazole]
fitness, S. pneumoniae D39V [1], one replicate
Details | first compound 0.003875 µg/mL | first compound 0.00775 µg/mL | first compound 0.031 µg/mL | first compound 0.062 µg/mL
partner 1.25 µg/mL | ≥ 1 | ≥ 1 | 0.938 | 0.775
partner 2.5 µg/mL | ≥ 1 | ≥ 1 | 0.91 | 0.794
partner 5 µg/mL | ≥ 1 | ≥ 1 | 0.892 | 0.757

fitness
Details | partner 0.625 µg/mL | partner 1.073 µg/mL | partner 1.25 µg/mL | partner 2.145 µg/mL | partner 2.5 µg/mL | partner 4.29 µg/mL | partner 5 µg/mL
B. subtilis 168 [2], first compound 0.02 µg/mL | 0.914 | – | 0.899 | – | 0.933 | – | –
B. subtilis 168 [2], first compound 0.04 µg/mL | 0.774 | – | 0.835 | – | 0.844 | – | –
B. subtilis 168 [2], first compound 0.08 µg/mL | 0.701 | – | 0.682 | – | 0.61 | – | –
S. pneumoniae D39V [1], first compound 0.0155 µg/mL | – | 0.873 | 0.994 | 0.851 | ≥ 1 | 0.809 | 0.968
S. pneumoniae D39V [1], first compound 0.031 µg/mL | – | 0.889 | – | 0.853 | – | 0.835 | –
S. pneumoniae D39V [1], first compound 0.062 µg/mL | – | 0.838 | – | 0.865 | – | 0.829 | –

Details | Bliss interaction score
B. subtilis 168 [4] | 0.0635
S. aureus DSM 20231 | 0.0684
S. aureus Newman | 0.0262
S. pneumoniae D39V [3] | 0.0539

O=C(O)c1cn(C2CC2)c2cc(N3CCNCC3)c(F)cc2c1=O [Ciprofloxacin] + C[C@H]1COc2c(N3CCN(C)CC3)c(F)cc3c(=O)c(C(=O)O)cn1c23 [Levofloxacin]
Details | fitness
B. subtilis 168 [2], first compound 0.0098 µg/mL, partner 0.002 µg/mL | 0.855
B. subtilis 168 [2], first compound 0.0098 µg/mL, partner 0.0039 µg/mL | 0.873
B. subtilis 168 [2], first compound 0.0098 µg/mL, partner 0.0312 µg/mL | 0.0377
B. subtilis 168 [2], first compound 0.0098 µg/mL, partner 0.0625 µg/mL | 0.0424
B. subtilis 168 [2], first compound 0.0098 µg/mL, partner 0.125 µg/mL | 0.0385
B. subtilis 168 [2], first compound 0.0195 µg/mL, partner 0.002 µg/mL | 0.727
B. subtilis 168 [2], first compound 0.0195 µg/mL, partner 0.0039 µg/mL | 0.722
B. subtilis 168 [2], first compound 0.0195 µg/mL, partner 0.0312 µg/mL | 0.0376
B. subtilis 168 [2], first compound 0.0195 µg/mL, partner 0.0625 µg/mL | 0.0489
B. subtilis 168 [2], first compound 0.0195 µg/mL, partner 0.125 µg/mL | 0.0429
B. subtilis 168 [2], first compound 0.039 µg/mL, partner 0.002 µg/mL | 0.123
B. subtilis 168 [2], first compound 0.039 µg/mL, partner 0.0039 µg/mL | 0.145
B. subtilis 168 [2], first compound 0.039 µg/mL, partner 0.0312 µg/mL | 0.0451
B. subtilis 168 [2], first compound 0.039 µg/mL, partner 0.0625 µg/mL | 0.0495
B. subtilis 168 [2], first compound 0.039 µg/mL, partner 0.125 µg/mL | 0.0401
S. pneumoniae D39V [1], first compound 0.125 µg/mL, partner 0.1725 µg/mL | 0.884
S. pneumoniae D39V [1], first compound 0.125 µg/mL, partner 0.2 µg/mL | 0.883
S. pneumoniae D39V [1], first compound 0.125 µg/mL, partner 0.345 µg/mL | 0.794
S. pneumoniae D39V [1], first compound 0.125 µg/mL, partner 0.4 µg/mL | 0.735
S. pneumoniae D39V [1], first compound 0.125 µg/mL, partner 0.69 µg/mL | 0.498
S. pneumoniae D39V [1], first compound 0.125 µg/mL, partner 0.8 µg/mL | 0.201
S. pneumoniae D39V [1], first compound 0.25 µg/mL, partner 0.1725 µg/mL | 0.83
S. pneumoniae D39V [1], first compound 0.25 µg/mL, partner 0.345 µg/mL | 0.723
S. pneumoniae D39V [1], first compound 0.25 µg/mL, partner 0.69 µg/mL | 0.445
S. pneumoniae D39V [1], first compound 0.5 µg/mL, partner 0.1725 µg/mL | 0.592
S. pneumoniae D39V [1], first compound 0.5 µg/mL, partner 0.345 µg/mL | 0.462
S. pneumoniae D39V [1], first compound 0.5 µg/mL, partner 0.69 µg/mL | 0.282
S. pneumoniae D39V [1], first compound 0.5 µg/mL, partner 0.8 µg/mL | 0.145

one replicate
Details | fitness
B. subtilis 168 [2], first compound 0.0098 µg/mL, partner 0.001 µg/mL | 0.863
B. subtilis 168 [2], first compound 0.0098 µg/mL, partner 0.0078 µg/mL | 0.934
B. subtilis 168 [2], first compound 0.0195 µg/mL, partner 0.001 µg/mL | 0.829
B. subtilis 168 [2], first compound 0.0195 µg/mL, partner 0.0078 µg/mL | 0.683
B. subtilis 168 [2], first compound 0.039 µg/mL, partner 0.001 µg/mL | 0.291
B. subtilis 168 [2], first compound 0.039 µg/mL, partner 0.0078 µg/mL | 0.0887
S. pneumoniae D39V [1], first compound 0.25 µg/mL, partner 0.2 µg/mL | 0.752
S. pneumoniae D39V [1], first compound 0.25 µg/mL, partner 0.4 µg/mL | 0.559
S. pneumoniae D39V [1], first compound 0.25 µg/mL, partner 0.8 µg/mL | 0.124

Details | Bliss interaction score
B. subtilis 168 [4] | -0.0411
S. aureus DSM 20231 | -0.147
S. aureus Newman | -0.194
S. pneumoniae D39V [3] | -0.166
